Measured values reported in ChEMBL document CHEMBL1151433, “National and regional assessment of antimicrobial resistance among community-acquired respiratory tract pathogens identified in a 2005-2006 U.S. Faropenem surveillance study” (2007).
Converted amounts (≈) assume the structure as drawn.

How the values were obtained:
Haemophilus influenzae [1] = test: Antibacterial activity against beta lactamase-positive Haemophilus influenzae […] isolated from respiratory tract infected patients assessed as susceptible isolates after 20 to 24 hrs by broth microdilution method; assay type: functional, ATCC 49247
Streptococcus pneumoniae [2] = test: Antibacterial activity against Streptococcus pneumoniae ATCC 49619 isolated from respiratory tract infected patients with 3 to 5 years of age assessed as resistant isolates after 20 to 24 hrs by broth microdilution method; assay type: functional
Streptococcus pneumoniae [3] = test: Antibacterial activity against Streptococcus pneumoniae ATCC 49619 isolated from respiratory tract infected female patients assessed as resistant isolates after 20 to 24 hrs by broth microdilution method; assay type: functional
Streptococcus pneumoniae [4] = test: Antibacterial activity against penicillin-intermediate Streptococcus pneumoniae ATCC 49619 isolated from respiratory tract infected patients assessed as resistant isolates after 20 to 24 hrs by broth microdilution method; assay type: functional
Streptococcus pneumoniae [5] = test: Antibacterial activity against penicillin-susceptible Streptococcus pneumoniae ATCC 49619 isolated from respiratory tract infected patients assessed as susceptible isolates after 20 to 24 hrs by broth microdilution method; assay type: functional
Streptococcus pneumoniae [6] = test: Antibacterial activity against Streptococcus pneumoniae ATCC 49619 isolated from respiratory tract infected patients more than 65 years of age after 20 to 24 hrs by broth microdilution method; assay type: functional
Streptococcus pneumoniae [7] = test: Antibacterial activity against Streptococcus pneumoniae ATCC 49619 isolated from respiratory tract infected patients within 2 years of age after 20 to 24 hrs by broth microdilution method; assay type: functional
Streptococcus pneumoniae [8] = test: Antibacterial activity against penicillin-susceptible Streptococcus pneumoniae ATCC 49619 isolated from respiratory tract infected patients assessed as resistant isolates after 20 to 24 hrs by broth microdilution method; assay type: functional
Moraxella catarrhalis = test: Antibacterial activity against Moraxella catarrhalis isolated from respiratory tract infected patients after 20 to 24 hrs by broth microdilution method; assay type: functional
Streptococcus pneumoniae [9] = test: Antibacterial activity against Streptococcus pneumoniae ATCC 49619 isolated from respiratory tract infected patients with 6 to 14 years of age after 20 to 24 hrs by broth microdilution method; assay type: functional
Haemophilus influenzae [10] = test: Antibacterial activity against Haemophilus influenzae […] isolated from respiratory tract infected patients after 20 to 24 hrs by broth microdilution method; assay type: functional; details: ATCC 49247
Streptococcus pneumoniae [11] = test: Antibacterial activity against Streptococcus pneumoniae ATCC 49619 isolated from respiratory tract infected patients with 6 to 14 years of age assessed as resistant isolates after 20 to 24 hrs by broth microdilution method; assay type: functional
Streptococcus pneumoniae [12] = test: Antibacterial activity against Streptococcus pneumoniae ATCC 49619 isolated from respiratory tract infected patients with 15 to 64 years of age after 20 to 24 hrs by broth microdilution method; assay type: functional
Haemophilus influenzae [13] = test: Antibacterial activity against beta lactamase-negative Haemophilus influenzae […] isolated from respiratory tract infected patients assessed as susceptible isolates after 20 to 24 hrs by broth microdilution method; assay type: functional
Streptococcus pneumoniae [14] = test: Antibacterial activity against Streptococcus pneumoniae ATCC 49619 isolated from respiratory tract infected male patients assessed as resistant isolates after 20 to 24 hrs by broth microdilution method; assay type: functional
Streptococcus pneumoniae [15] = test: Antibacterial activity against Streptococcus pneumoniae ATCC 49619 isolated from respiratory tract infected patients with 15 to 64 years of age assessed as resistant isolates after 20 to 24 hrs by broth microdilution method; assay type: functional
Streptococcus pneumoniae [16] = test: Antibacterial activity against penicillin-susceptible Streptococcus pneumoniae ATCC 49619 isolated from respiratory tract infected patients after 20 to 24 hrs by broth microdilution method; assay type: functional
Streptococcus pneumoniae [17] = test: Antibacterial activity against Streptococcus pneumoniae ATCC 49619 isolated from respiratory tract infected patients more than 65 years of age assessed as resistant isolates after 20 to 24 hrs by broth microdilution method; assay type: functional
Streptococcus pneumoniae [18] = test: Antibacterial activity against Streptococcus pneumoniae ATCC 49619 isolated from respiratory tract infected outpatients assessed as resistant isolates after 20 to 24 hrs by broth microdilution method; assay type: functional
Streptococcus pneumoniae [19] = test: Antibacterial activity against penicillin-intermediate Streptococcus pneumoniae ATCC 49619 isolated from respiratory tract infected patients assessed as susceptible isolates after 20 to 24 hrs by broth microdilution method; assay type: functional
Streptococcus pneumoniae [20] = test: Antibacterial activity against Streptococcus pneumoniae ATCC 49619 isolated from respiratory tract infected patients assessed as resistant isolates after 20 to 24 hrs by broth microdilution method; assay type: functional
Streptococcus pneumoniae [21] = test: Antibacterial activity against Streptococcus pneumoniae ATCC 49619 isolated from respiratory tract infected inpatients after 20 to 24 hrs by broth microdilution method; assay type: functional
Streptococcus pneumoniae [22] = test: Antibacterial activity against Streptococcus pneumoniae ATCC 49619 isolated from respiratory tract infected male patients after 20 to 24 hrs by broth microdilution method; assay type: functional
Streptococcus pneumoniae [23] = test: Antibacterial activity against Streptococcus pneumoniae ATCC 49619 isolated from respiratory tract infected patients within 2 years of age assessed as resistant isolates after 20 to 24 hrs by broth microdilution method; assay type: functional
Streptococcus pneumoniae [24] = test: Antibacterial activity against Streptococcus pneumoniae ATCC 49619 isolated from respiratory tract infected inpatients assessed as resistant isolates after 20 to 24 hrs by broth microdilution method; assay type: functional
Haemophilus influenzae [25] = test: Antibacterial activity against Haemophilus influenzae […] isolated from respiratory tract infected patients assessed as susceptible isolates after 20 to 24 hrs by broth microdilution method; assay type: functional, ATCC 49247
Streptococcus pneumoniae [26] = test: Antibacterial activity against Streptococcus pneumoniae ATCC 49619 isolated from respiratory tract infected patients with 3 to 5 years of age after 20 to 24 hrs by broth microdilution method; assay type: functional
Haemophilus influenzae [27] = test: Antibacterial activity against beta lactamase-positive Haemophilus influenzae […] isolated from respiratory tract infected patients after 20 to 24 hrs by broth microdilution method; assay type: functional; details: ATCC 49247
Streptococcus pneumoniae [28] = test: Antibacterial activity against penicillin-intermediate Streptococcus pneumoniae ATCC 49619 isolated from respiratory tract infected patients after 20 to 24 hrs by broth microdilution method; assay type: functional
Streptococcus pneumoniae [29] = test: Antibacterial activity against Streptococcus pneumoniae ATCC 49619 isolated from respiratory tract infected outpatients after 20 to 24 hrs by broth microdilution method; assay type: functional
Streptococcus pneumoniae [30] = test: Antibacterial activity against Streptococcus pneumoniae ATCC 49619 isolated from respiratory tract infected patients assessed as susceptible isolates after 20 to 24 hrs by broth microdilution method; assay type: functional
Streptococcus pneumoniae [31] = test: Antibacterial activity against Streptococcus pneumoniae ATCC 49619 isolated from respiratory tract infected patients after 20 to 24 hrs by broth microdilution method; assay type: functional
Streptococcus pneumoniae [32] = test: Antibacterial activity against penicillin-resistant Streptococcus pneumoniae ATCC 49619 isolated from respiratory tract infected patients assessed as susceptible isolates after 20 to 24 hrs by broth microdilution method; assay type: functional
Streptococcus pneumoniae [33] = test: Antibacterial activity against penicillin-resistant Streptococcus pneumoniae ATCC 49619 isolated from respiratory tract infected patients assessed as resistant isolates after 20 to 24 hrs by broth microdilution method; assay type: functional
Streptococcus pneumoniae [34] = test: Antibacterial activity against penicillin-resistant Streptococcus pneumoniae ATCC 49619 isolated from respiratory tract infected patients after 20 to 24 hrs by broth microdilution method; assay type: functional
Streptococcus pneumoniae [35] = test: Antibacterial activity against Streptococcus pneumoniae ATCC 49619 isolated from respiratory tract infected female patients after 20 to 24 hrs by broth microdilution method; assay type: functional
Haemophilus influenzae [36] = test: Antibacterial activity against beta lactamase-negative Haemophilus influenzae […] isolated from respiratory tract infected patients after 20 to 24 hrs by broth microdilution method; assay type: functional; details: ATCC 49247

Work on `CC[C@H]1OC(=O)[C@H](C)[C@@H](O[C@H]2C[C@@](C)(OC)[C@@H](O)[C@H](C)O2)[C@H](C)[C@@H](O[C@@H]2O[C@H](C)C[C@H](N(C)C)[C@H]2O)[C@](C)(O)C[C@@H](C)CN(C)[C@H](C)[C@@H](O)[C@]1(C)O` [AZITHROMYCIN] yielded an Activity (Haemophilus influenzae [1]) of 98.1%, an Activity (Streptococcus pneumoniae [2]) of 42.4% and an Activity (Streptococcus pneumoniae [3]) of 31.2%. The Activity (Streptococcus pneumoniae [4]) was 64.5%, the Activity (Streptococcus pneumoniae [5]) was 87.9% and the MIC90 (Streptococcus pneumoniae [6]) was > 16 µg/mL. The MIC90 (Streptococcus pneumoniae [7]) was > 16 µg/mL, the Activity (Streptococcus pneumoniae [8]) was 11.3% and the MIC50 (Moraxella catarrhalis) was ≤ 0.12 µg/mL. For the same compound, the MIC90 (Moraxella catarrhalis) was ≤ 0.12 µg/mL, the MIC90 (Streptococcus pneumoniae [9]) was > 16 µg/mL and the MIC50 (Haemophilus influenzae [10]) was 1 µg/mL (≈ 1.34 µM). The MIC90 (Haemophilus influenzae [10]) was 2 µg/mL (≈ 2.67 µM), the Activity (Streptococcus pneumoniae [11]) was 36% and the MIC90 (Streptococcus pneumoniae [12]) was > 16 µg/mL. For the same compound, the Activity (Haemophilus influenzae [13]) was 98.9%, the Activity (Streptococcus pneumoniae [14]) was 36% and the Activity (Streptococcus pneumoniae [15]) was 27.6%. For the same compound, the MIC50 (Streptococcus pneumoniae [16]) was ≤ 0.12 µg/mL, the MIC90 (Streptococcus pneumoniae [16]) was 4 µg/mL (≈ 5.34 µM) and the Activity (Streptococcus pneumoniae [17]) was 33.8%. The Activity (Streptococcus pneumoniae [18]) was 34.8%, the Activity (Streptococcus pneumoniae [19]) was 35.5% and the Activity (Streptococcus pneumoniae [20]) was 34%. The MIC90 (Streptococcus pneumoniae [21]) was > 16 µg/mL, the MIC90 (Streptococcus pneumoniae [22]) was > 16 µg/mL and the Activity (Streptococcus pneumoniae [23]) was 50.5%. The Activity (Streptococcus pneumoniae [24]) was 33%, the Activity (Haemophilus influenzae [25]) was 98.7% and the MIC90 (Streptococcus pneumoniae [26]) was > 16 µg/mL. The MIC50 (Haemophilus influenzae [27]) was 1 µg/mL (≈ 1.34 µM), the MIC90 (Haemophilus influenzae [27]) was 2 µg/mL (≈ 2.67 µM) and the MIC50 (Streptococcus pneumoniae [28]) was 4 µg/mL (≈ 5.34 µM). The MIC90 (Streptococcus pneumoniae [28]) was > 16 µg/mL, the MIC90 (Streptococcus pneumoniae [29]) was > 16 µg/mL and the Activity (Streptococcus pneumoniae [30]) was 65.5%. The MIC50 (Streptococcus pneumoniae [31]) was ≤ 0.12 µg/mL, the MIC90 (Streptococcus pneumoniae [31]) was > 16 µg/mL and the Activity (Streptococcus pneumoniae [32]) was 19.4%. The Activity (Streptococcus pneumoniae [33]) was 80.6%, the MIC50 (Streptococcus pneumoniae [34]) was 32 µg/mL (≈ 42.7 µM) and the MIC90 (Streptococcus pneumoniae [34]) was > 16 µg/mL. The MIC90 (Streptococcus pneumoniae [35]) was > 16 µg/mL, the MIC50 (Haemophilus influenzae [36]) was 1 µg/mL (≈ 1.34 µM) and the MIC90 (Haemophilus influenzae [36]) was 2 µg/mL (≈ 2.67 µM).
